Source: patent US7803377B2, “Anti-DLL4 antibodies and methods using same” (Genentech, Inc., priority 2006, dated 2010)

Tests used:
[1] = tested on: non-small lung cancer H1299 cells; test: Tumor model H1299; type: in vivo, mouse; conditions: 5 mg/kg, IP, twice weekly after establishment of the tumors
Description: (§1) Tumor models. Beige nude female mice of 8- to 10-week-old were used. To obtain subcutaneous tumors, mice were injected with 0.1 ml cell suspension containing 50% matrigel (BD Bioscience) into the right posterior flank. 5×10^6 human colon cancer HM7 cells, 10×10^6 human colon carcinoma Colo205 cells, 10×10^6 human lung carcinoma Calu6 cells, 10×10^6 human lung carcinoma MV-522 cells, 10×10^6 mouse leukemia WEHI-3 cells, 10×10^6 mouse lymphoma EL4 cells, 10×10^6 human ovarian cancer SK-OV-3 X1 cells, 10×06 mouse lung cancer LL2 cells, 10×10^6 leukemia/lymphoma EL4 cells, or 10×10^6 non-small lung cancer H1299 cells were injected into each mouse. For human melanoma MDA-MB-435 model, mice were injected into the mammary fat pad with 0.1 ml cell (5×10^6) suspension containing 50% matrigel. […] For the following tumor models, each test mouse received a subcutaneous tumor fragment (1 mm^3) implanted in the right flank: non-small lung cancer SKMES-1, human breast cancer MX-1, human colorectal cancer SW620 and human adenocarcinoma LS174T. The tumor growth was quantitated by caliper measurements. Tumor volume (mm^3) was determined by measuring the length (l) and width (w) and calculating the volume (V=lw2/2). 10 to 15 animals were included in each group. Statistical comparison of treatment groups was performed using two-tailed Student's t-test. […]

[2] = tested on: human lung carcinoma MV-522 cells; test: Tumor model MV-522; type: in vivo, mouse; conditions: treatment initiated at ≧250 mm^3
Description: as §1

[3] = tested on: human adenocarcinoma LS174T; test: Tumor model LS174T; type: in vivo, mouse; conditions: 5 mg/kg, IP, twice weekly after establishment of the tumors
Description: as §1

EL4 mouse lymphoma tumor = test: Tumor vascular labeling and immunohistochemistry (EL4 tumors); type: in vivo
Description: Tumor vascular labeling and immunohistochemistry. Mice were anesthetized with Isoflurane. FITC-labeled Lycopersicon esculentum Lectin (150 μg in 150 μl of 0.9% NaCl; Vector Laboratories) was injected i.v. and allowed to circulate for 5 min before systemic perfusion. The vasculature was perfused transcardially with 1% PFA in PBS for 3 min. Tumors were removed and post fixed by immersion in the same fixative for 2 hr, followed by an incubation in 30% sucrose overnight for cryoprotection, then embedded in OCT. Sections (4 μm thickness) were stained with anti-mouse CD31 (1:50, BD Pharmingen), followed by Alexa 594 goat anti-rat IgG (1:800, Molecular Probes).
In light of the tumor growth inhibition, we used the EL4 mouse lymphoma tumor model for vascular histology studies.
Since in vitro blocking of DLL4/Notch pathway impaired the formation of lumen-like structure by ECs (FIG. 8a), it was investigated whether treatment with anti-DLL4 Mab caused similar defect in the tumor vasculature and affected efficient blood flow. […] Given the critical role of DLL4/Notch signaling in AV differentiation, both in embryos and early postnatal retinas, anti-DLL4 Mab could impact cell fate specification of tumor ECs and cause defective directional blood flow. […] Further studies utilizing vascular imaging techniques are needed to gain insights into the precise vascular defects.

mouse lymphoma EL4 cells = test: Tumor model EL4; type: in vivo; conditions: 5 mg/kg, IP, twice weekly after establishment of the tumors
Description: as §1

retinal vasculature = test: Mouse neonatal retina study; type: in vivo
Description: Mouse neonatal retina study. […] Eyes were collected on P5, and fixed with 4% PFA in PBS overnight. The dissected retinas were blocked with 10% goat serum in PBST for 3 hrs, then incubated overnight with primary antibodies. The primary cocktail included biotinylated isolectin B4 (25 μg/ml, Bandeiraea simplicifolia; Sigma), and one of the following: rabbit anti-mouse Ki67 (1:1, ready-to-use, clone Sp6, Lab Vision), or mouse Cy3-conjugated anti-alpha SMA (1:2000, Sigma-Aldrich), with 10% serum in PBLEC (1% Triton X-100, 0.1 mM CaCl2, 0.1 mM MgCl2, 0.1 mM MnCl2, in PBS pH6.8). Retinas were then washed in PBST, and incubated overnight with secondary antibody combination of Alexa Fluor® 488 streptavidin (1:200; Molecular Probes) and Cy3-anti-rabbit IgG (1:200; Jackson ImmunoResearch). After staining was completed, retinas were post fixed with 4% PFA in PBS. All overnight incubations were done at 4° C. Images of flat mounted retinas were captured by confocal fluorescence microscopy.
Early postnatal mouse retina develops a stereotypic vascular pattern in a well-defined sequence of events (Stone, J. & Dreher, Z. J Comp Neurol 255, 35-49 (1987); Gerhardt, H. et al. J Cell Biol 161, 1163-77 (2003); Fruttiger, M. Invest Opthalmol Vis Sci 43, 522-7 (2002)). […] Therefore, this hyperproliferative phenotype of retinal ECs upon DLL4 blockade in neonatal mice corroborated the in vitro findings.

[4] = neonatal CD1 mice, 10 mg/kg i.p. on P1 and P3, eyes collected P5
[5] = neonatal mice, 10 mg/kg i.p. on P1 and P3

YW26.82: affinity matured anti-DLL4 monoclonal antibody; HVR-H1/H2/H3 SEQ ID NO:1, 8, 9; HVR-L1/L2/L3 SEQ ID NO:10, 11, 18
tumor growth, single agent [1]: inhibited tumor growth alone
tumor growth, single agent [2]: inhibited tumor growth
tumor growth, combination of YW26.82 and anti-VEGF ([2]; combination with anti-VEGF): most effective
tumor growth, single agent [3]: inhibited tumor growth alone
endothelial cell density (anti-CD31) in tumor sections (EL4 mouse lymphoma tumor; EL4 tumors): dramatic increase in endothelial cell density
FITC-lectin labeling of tumor vessels (vascular perfusion) (EL4 mouse lymphoma tumor; systemic perfusion with FITC-lectin, EL4 tumor sections): marked reduction of lectin labeling of tumor vessels
tumor growth, single agent (mouse lymphoma EL4 cells): inhibited tumor growth alone
Ki67 labeling in retinal ECs (retinal vasculature; [4]): significant increase of Ki67 labeling in ECs
accumulation of ECs in neonatal retina (retinal vasculature; [4]): massive accumulation of ECs
anti-α smooth muscle actin (ASMA) staining of retinal arteries (retinal vasculature; [5]): completely absent
pattern of radially alternating arteries and veins in retina (retinal vasculature; [5]): severely disrupted
